The target of assay [1] is CDK6/cyclin D1 (Homo sapiens) (UniProt P24385+Q00534). In words: Inhibition of human CDK6/cyclin D1 at 18.6 nM by HotSpot assay relative to control. Type of assay: protein-complex assay.
The target of assay [2] is Ephrin type-A receptor 4 (Homo sapiens) (UniProt P54764). In words: Inhibition of human EPHA4 at 18.6 nM by HotSpot assay relative to control.
Assay [3] has as its target Homeodomain-interacting protein kinase 2 (Homo sapiens) (UniProt Q9H2X6). The experiment in a line: Inhibition of human HIPK2 at 18.6 nM by HotSpot assay relative to control.
Assay [4] deals with T1, Interleukin-1 receptor-associated kinase 4 (Homo sapiens) (UniProt Q9NWZ3).
T1 sequence (whole entry): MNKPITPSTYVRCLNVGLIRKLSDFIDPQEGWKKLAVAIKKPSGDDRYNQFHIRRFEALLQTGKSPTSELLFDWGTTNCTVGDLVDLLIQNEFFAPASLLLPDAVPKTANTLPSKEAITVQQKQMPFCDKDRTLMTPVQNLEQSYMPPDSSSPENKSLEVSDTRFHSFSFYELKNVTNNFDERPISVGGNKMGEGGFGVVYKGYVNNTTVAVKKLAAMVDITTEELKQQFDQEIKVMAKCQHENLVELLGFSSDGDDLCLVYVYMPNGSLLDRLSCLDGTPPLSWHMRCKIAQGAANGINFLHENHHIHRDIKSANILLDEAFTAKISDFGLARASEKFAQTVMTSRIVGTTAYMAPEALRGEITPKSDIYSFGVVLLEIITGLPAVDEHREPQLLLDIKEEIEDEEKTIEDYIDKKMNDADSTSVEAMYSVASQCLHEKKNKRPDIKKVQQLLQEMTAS
In words: Inhibition of human IRAK4 at 18.6 nM by HotSpot assay relative to control.

Assay [5] addresses T2, Serine/threonine-protein kinase 3 (Homo sapiens) (UniProt Q13188).
T2 sequence (whole entry): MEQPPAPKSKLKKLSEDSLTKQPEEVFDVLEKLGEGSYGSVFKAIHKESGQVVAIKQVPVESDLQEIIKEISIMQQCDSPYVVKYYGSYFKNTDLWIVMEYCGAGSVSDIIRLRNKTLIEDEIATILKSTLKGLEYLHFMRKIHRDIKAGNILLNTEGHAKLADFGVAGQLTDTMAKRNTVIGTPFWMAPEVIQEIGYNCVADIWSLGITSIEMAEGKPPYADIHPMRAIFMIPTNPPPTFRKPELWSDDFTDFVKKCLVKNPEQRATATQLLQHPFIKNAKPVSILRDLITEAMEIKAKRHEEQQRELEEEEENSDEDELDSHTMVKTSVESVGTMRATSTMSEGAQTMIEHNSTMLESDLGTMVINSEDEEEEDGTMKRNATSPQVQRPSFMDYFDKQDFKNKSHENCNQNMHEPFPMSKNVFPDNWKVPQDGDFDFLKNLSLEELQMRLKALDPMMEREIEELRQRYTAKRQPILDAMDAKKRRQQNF
The experiment in a line: Inhibition of human STK3 at 18.6 nM by HotSpot assay relative to control.

Assay [6] has as its target T3, Serine/threonine-protein kinase VRK1 (Homo sapiens) (UniProt Q99986).
T3 sequence (whole entry): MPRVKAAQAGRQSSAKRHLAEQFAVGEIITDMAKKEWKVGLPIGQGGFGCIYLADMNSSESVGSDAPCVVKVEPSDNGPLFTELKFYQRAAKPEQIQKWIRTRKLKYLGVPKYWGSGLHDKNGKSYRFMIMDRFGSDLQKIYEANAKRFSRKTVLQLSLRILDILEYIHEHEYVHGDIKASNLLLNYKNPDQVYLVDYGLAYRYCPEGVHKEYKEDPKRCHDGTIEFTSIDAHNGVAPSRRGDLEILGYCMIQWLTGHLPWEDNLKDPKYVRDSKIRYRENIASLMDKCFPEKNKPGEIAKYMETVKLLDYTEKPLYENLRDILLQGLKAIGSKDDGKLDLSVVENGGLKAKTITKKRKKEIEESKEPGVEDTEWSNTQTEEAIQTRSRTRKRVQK
In words: Inhibition of human VRK1 at 18.6 nM by HotSpot assay relative to control.

Assay [7] has as its target T4, Calcium/calmodulin-dependent protein kinase type IV (Homo sapiens) (UniProt Q16566).
T4 sequence (whole entry): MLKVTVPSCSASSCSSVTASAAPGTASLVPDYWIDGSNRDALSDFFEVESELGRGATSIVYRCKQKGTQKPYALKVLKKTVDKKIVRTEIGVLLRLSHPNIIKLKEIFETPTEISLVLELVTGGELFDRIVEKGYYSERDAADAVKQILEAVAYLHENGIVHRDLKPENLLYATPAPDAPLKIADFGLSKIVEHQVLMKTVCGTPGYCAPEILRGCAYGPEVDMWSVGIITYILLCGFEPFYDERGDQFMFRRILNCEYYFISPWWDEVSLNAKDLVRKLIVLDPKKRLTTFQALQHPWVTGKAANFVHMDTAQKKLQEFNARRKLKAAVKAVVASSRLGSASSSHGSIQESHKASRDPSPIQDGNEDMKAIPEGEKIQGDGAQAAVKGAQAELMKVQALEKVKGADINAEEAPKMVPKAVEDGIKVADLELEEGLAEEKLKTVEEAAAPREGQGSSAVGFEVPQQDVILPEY
The experiment in a line: Inhibition of human CAMK4 at 1.82 nM by HotSpot assay relative to control.

Assay [8] addresses T5, Myotonin-protein kinase (Homo sapiens) (UniProt Q09013).
T5 sequence (whole entry): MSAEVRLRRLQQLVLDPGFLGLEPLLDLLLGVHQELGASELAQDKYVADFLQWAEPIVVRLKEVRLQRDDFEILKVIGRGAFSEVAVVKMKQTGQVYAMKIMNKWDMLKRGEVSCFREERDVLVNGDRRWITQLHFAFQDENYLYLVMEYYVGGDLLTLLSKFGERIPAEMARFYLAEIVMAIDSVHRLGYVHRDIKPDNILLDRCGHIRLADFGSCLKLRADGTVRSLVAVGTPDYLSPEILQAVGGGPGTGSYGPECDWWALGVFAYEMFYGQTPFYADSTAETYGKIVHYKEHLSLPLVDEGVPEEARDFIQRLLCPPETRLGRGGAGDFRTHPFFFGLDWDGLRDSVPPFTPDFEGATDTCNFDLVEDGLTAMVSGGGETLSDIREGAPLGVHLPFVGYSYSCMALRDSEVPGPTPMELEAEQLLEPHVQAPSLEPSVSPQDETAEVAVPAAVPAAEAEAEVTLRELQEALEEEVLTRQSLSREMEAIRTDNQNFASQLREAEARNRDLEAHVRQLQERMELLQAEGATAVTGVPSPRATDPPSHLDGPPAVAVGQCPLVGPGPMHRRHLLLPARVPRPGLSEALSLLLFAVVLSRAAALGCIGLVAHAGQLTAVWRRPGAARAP
In words: Inhibition of human DMPK at 1.82 nM by HotSpot assay relative to control.

The target of assay [9] is G protein-coupled receptor kinase 4 (Homo sapiens) (UniProt P32298). The experiment in a line: Inhibition of human GRK4 at 1.82 nM by HotSpot assay relative to control.
G protein-coupled receptor kinase 4 (Homo sapiens), sequence (P32298 whole entry, looked up, canonical isoform): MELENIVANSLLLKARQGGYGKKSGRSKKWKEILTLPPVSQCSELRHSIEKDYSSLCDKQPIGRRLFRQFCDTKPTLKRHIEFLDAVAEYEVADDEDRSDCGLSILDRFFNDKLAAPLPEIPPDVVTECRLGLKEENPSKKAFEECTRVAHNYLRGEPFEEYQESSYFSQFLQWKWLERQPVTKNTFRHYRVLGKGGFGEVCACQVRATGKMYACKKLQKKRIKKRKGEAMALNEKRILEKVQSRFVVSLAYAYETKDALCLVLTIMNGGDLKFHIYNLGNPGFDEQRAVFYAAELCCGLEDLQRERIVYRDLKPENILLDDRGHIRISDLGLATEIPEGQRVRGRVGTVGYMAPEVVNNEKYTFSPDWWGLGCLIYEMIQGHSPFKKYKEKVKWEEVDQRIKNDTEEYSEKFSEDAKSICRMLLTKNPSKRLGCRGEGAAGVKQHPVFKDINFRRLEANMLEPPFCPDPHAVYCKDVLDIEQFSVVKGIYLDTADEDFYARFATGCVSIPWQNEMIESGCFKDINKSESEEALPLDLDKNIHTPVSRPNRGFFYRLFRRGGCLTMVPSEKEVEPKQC
Assay [10] deals with Phosphorylase b kinase gamma catalytic chain, skeletal muscle/heart isoform (Homo sapiens) (UniProt Q16816). The experiment in a line: Inhibition of human PHKg1 at 1.82 nM by HotSpot assay relative to control.
Phosphorylase b kinase gamma catalytic chain, skeletal muscle/heart isoform (Homo sapiens), sequence (Q16816 whole entry, looked up, canonical isoform): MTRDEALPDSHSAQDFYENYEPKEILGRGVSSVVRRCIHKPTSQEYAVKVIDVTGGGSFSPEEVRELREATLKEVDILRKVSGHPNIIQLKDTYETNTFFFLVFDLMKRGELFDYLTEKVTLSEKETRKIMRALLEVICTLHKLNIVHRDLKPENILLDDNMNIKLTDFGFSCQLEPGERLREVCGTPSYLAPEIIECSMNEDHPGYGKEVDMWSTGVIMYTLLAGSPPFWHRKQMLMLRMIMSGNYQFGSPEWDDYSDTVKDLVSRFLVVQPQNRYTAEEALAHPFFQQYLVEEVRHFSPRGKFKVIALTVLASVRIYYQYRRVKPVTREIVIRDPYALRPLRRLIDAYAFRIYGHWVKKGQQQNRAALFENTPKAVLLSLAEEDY

Ephrin type-A receptor 4 (Homo sapiens), sequence (P54764 whole entry): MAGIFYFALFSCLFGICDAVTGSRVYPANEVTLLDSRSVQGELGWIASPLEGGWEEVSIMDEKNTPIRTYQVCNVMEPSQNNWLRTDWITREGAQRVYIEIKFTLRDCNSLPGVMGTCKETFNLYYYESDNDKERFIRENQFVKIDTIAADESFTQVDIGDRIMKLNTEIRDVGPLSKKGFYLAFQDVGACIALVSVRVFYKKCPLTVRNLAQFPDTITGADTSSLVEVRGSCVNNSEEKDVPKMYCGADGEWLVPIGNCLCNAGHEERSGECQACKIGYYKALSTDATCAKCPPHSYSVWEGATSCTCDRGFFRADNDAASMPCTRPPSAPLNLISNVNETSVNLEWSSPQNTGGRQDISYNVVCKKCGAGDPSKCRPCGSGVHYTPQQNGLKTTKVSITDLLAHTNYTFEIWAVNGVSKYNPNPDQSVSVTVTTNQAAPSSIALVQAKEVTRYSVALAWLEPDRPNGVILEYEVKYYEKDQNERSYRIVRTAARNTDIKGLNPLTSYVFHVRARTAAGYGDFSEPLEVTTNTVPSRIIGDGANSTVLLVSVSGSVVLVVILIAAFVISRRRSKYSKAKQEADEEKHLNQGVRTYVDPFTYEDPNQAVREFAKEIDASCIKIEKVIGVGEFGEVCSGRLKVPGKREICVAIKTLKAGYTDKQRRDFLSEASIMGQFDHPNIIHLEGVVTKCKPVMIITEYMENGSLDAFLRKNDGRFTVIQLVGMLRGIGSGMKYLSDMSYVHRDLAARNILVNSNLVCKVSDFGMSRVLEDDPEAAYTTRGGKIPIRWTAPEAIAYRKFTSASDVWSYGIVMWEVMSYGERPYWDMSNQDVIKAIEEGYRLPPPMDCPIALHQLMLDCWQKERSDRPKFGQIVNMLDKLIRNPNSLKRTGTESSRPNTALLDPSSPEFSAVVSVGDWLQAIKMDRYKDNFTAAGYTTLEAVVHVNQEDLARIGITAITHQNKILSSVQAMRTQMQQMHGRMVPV
Homeodomain-interacting protein kinase 2 (Homo sapiens), sequence (Q9H2X6 whole entry, looked up): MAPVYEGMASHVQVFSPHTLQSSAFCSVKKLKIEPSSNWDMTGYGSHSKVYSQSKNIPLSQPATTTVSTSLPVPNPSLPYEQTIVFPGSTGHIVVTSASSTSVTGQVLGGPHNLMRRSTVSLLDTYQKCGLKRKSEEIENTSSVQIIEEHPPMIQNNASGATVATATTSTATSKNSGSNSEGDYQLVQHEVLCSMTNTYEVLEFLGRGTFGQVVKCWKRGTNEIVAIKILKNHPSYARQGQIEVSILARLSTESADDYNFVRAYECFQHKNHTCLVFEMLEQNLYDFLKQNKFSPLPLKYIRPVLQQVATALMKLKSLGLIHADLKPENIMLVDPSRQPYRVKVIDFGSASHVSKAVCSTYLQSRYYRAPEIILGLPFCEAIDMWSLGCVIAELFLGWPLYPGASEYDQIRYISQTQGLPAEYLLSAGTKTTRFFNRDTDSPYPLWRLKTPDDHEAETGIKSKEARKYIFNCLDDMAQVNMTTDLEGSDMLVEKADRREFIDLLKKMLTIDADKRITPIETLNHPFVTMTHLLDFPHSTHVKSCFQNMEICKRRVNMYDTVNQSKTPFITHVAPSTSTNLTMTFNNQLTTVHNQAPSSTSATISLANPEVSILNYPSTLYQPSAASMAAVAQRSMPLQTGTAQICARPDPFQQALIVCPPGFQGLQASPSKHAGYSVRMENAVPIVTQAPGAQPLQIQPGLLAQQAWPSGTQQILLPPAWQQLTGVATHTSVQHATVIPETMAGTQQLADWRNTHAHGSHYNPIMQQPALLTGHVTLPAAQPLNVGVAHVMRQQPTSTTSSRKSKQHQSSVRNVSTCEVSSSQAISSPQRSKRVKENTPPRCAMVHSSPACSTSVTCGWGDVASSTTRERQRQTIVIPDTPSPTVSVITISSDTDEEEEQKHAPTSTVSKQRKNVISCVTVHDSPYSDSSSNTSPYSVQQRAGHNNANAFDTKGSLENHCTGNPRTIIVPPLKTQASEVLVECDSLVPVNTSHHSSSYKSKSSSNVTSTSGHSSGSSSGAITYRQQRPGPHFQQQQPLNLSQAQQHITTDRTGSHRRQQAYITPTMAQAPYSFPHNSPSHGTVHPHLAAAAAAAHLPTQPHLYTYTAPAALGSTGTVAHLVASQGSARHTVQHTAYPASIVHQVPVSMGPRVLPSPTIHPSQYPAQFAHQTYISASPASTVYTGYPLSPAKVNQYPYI

On to `C[C@]1(O)C[C@@H](c2nc(-c3ccc4ccc(-c5ccccc5)nc4c3)c3c(N)nccn32)C1`, for which the inhibition in assay [1] was 0.62%; in assay [2] it was -8.39%; in assay [3], -0.98%; in assay [4] it was -2.53%; in assay [5], -2.45%; in assay [6], -6.1%.
With `C[C@@]1(C(=O)Nc2ccc(F)nc2)CCCN1c1nc(Nc2cc(C3CC3)n[nH]2)c2cccn2n1`, the inhibition was determined as 3.45% in assay [7], 2.2% in assay [8], 0.72% in [9] and 2.68% in assay [10].

As a reminder, the inhibition is the change of the read-out against control, counted positive when it falls.
